EPA's ToxRefDB 2

Legend:
[1] = system: rat; conditions: Sub-acute repeat dose toxicity; sprague dawley; Oral; Gavage/Intubation; dose end: 28 day; group: systemic; systemic / clinical chemistry / alanine aminotransferase (alt/sgpt) / alanine aminotransferase (alt/sgpt) + systemic / clinical chemistry / …
[2] = system: dog; conditions: Sub-acute repeat dose toxicity; beagle; Oral; Gavage/Intubation; dose end: 28 day; group: systemic; systemic / clinical chemistry / alanine aminotransferase (alt/sgpt) / alanine aminotransferase (alt/sgpt) + systemic / clinical chemistry / …
[3] = system: mouse; conditions: Other (NonGuideline or Guideline Not Listed); cd1; Injection; Intravenous; dose end: 7 day; group: cannot be grouped; systemic / clinical chemistry / alanine aminotransferase (alt/sgpt) / alanine aminotransferase (alt/sgpt) + systemic / clinical chemistry / …
[4] = system: rat; conditions: Other (NonGuideline or Guideline Not Listed); wistar; Injection; Intravenous; dose end: 3 day; group: cannot be grouped; systemic / clinical chemistry / cholesterol / cholesterol + systemic / clinical chemistry / creatinine / creatinine + systemic / clinical …
[5] = system: rat; conditions: Other (NonGuideline or Guideline Not Listed); sprague dawley; Injection; Intravenous; dose end: 3 day; group: cannot be grouped; systemic / clinical chemistry / chloride / chloride + systemic / clinical chemistry / creatinine / creatinine + systemic / clinical …
[6] = system: rat; conditions: Sub-acute repeat dose toxicity; sprague dawley; Injection; Intravenous; dose end: 13 day; group: systemic; systemic / clinical chemistry / alanine aminotransferase (alt/sgpt) / alanine aminotransferase (alt/sgpt) + systemic / clinical chemistry / …
[7] = system: mouse; conditions: Carcinogenicity, b6c3f1, Oral, Feed, dose end: 78 week, group: systemic
[8] = system: rat; conditions: Carcinogenicity, fischer, Oral, Feed, dose end: 78 week, group: systemic
[9] = system: rabbit; conditions: Prenatal developmental toxicity study; new zealand white; Dermal; Topical; dose end: 18 GD; group: maternal; systemic / in life observation / clinical signs / [other]
[10] = system: rat; conditions: Prenatal developmental toxicity study; sprague dawley; Dermal; Topical; dose end: 15 GD; group: maternal; systemic / in life observation / body weight / body weight gain + systemic / in life observation / clinical signs / [other]
[11] = system: rat; conditions: Prenatal developmental toxicity study, long evans, Oral, Gavage/Intubation, dose end: 15 GD
[12] = systemic / in life observation / body weight / body weight
[13] = systemic / in life observation / body weight / body weight + systemic / pathology microscopic / liver / carcinoma + systemic / in life …
[14] = systemic / pathology microscopic / liver / carcinoma + systemic / pathology microscopic / zymbal's gland / squamous cell carcinoma + …
[15] = group: developmental, developmental / developmental malformation / bone / irregular ossification + developmental / developmental malformation / general / runts + …
[16] = group: developmental, developmental / developmental malformation / bone / irregular ossification + developmental / developmental malformation / kidney / …
[17] = group: maternal, systemic / in life observation / clinical signs / [other] + systemic / in life observation / clinical signs / hyperactivity + reproductive…

`CNS(=O)(=O)c1cc(C(=O)N2CCC(CCN3C4CCC3CC(n3c(C)nc5ccccc53)C4)(c3cccc(F)c3)CC2)c(Cl)cc1F` (stereo not drawn) gave an LEL [1] of 500 mg/kg/day, an LOAEL [1] of over 2000 mg/kg/day and an NEL [1] of under 500 mg/kg/day. The NOAEL [1] was at least 2000 mg/kg/day, the LEL [2] was 250 mg/kg/day and the LOAEL [2] was over 750 mg/kg/day. For the same compound, the NEL [2] was under 250 mg/kg/day and the NOAEL [2] was at least 750 mg/kg/day.
Work on `C[C@@H](O)[C@H]1C(=O)N2C(C(=O)[O-])=C(CN3c4cccc5c(CC[N+]67CC[N+](CC(N)=O)(CC6)CC7)ccc(c45)S3(=O)=O)[C@H](C)[C@H]12.[Cl-]` yielded an LEL [3] of 400 mg/kg/day, an LOAEL [3] of over 800 mg/kg/day and an NEL [3] of 200 mg/kg/day. The NOAEL [3] was at least 800 mg/kg/day, the LEL [4] was 150 mg/kg/day and the LOAEL [4] was over 225 mg/kg/day. The NEL [4] was 75 mg/kg/day, the NOAEL [4] was at least 225 mg/kg/day and the LEL [5] was 150 mg/kg/day. The LOAEL [5] was over 150 mg/kg/day, the NEL [5] was under 150 mg/kg/day and the NOAEL [5] was at least 150 mg/kg/day. For the same compound, the LEL [6] was 150 mg/kg/day, the LOAEL [6] was over 225 mg/kg/day and the NEL [6] was 75 mg/kg/day. The NOAEL [6] was at least 225 mg/kg/day.
With `c1ccc(NNc2ccccc2)cc1` [1,2-Diphenylhydrazine] the LOAEL [7, 12] was 60 mg/kg/day, the LEL [7, 13] was 60 mg/kg/day and the NEL [7, 13] was 6 mg/kg/day. The NOAEL [7, 13] was 6 mg/kg/day, the LEL [8, 12] was 2 mg/kg/day and the NEL [8, 12] was under 2 mg/kg/day. It also gave an LOAEL [8, 14] of over 4 mg/kg/day and an NOAEL [8, 14] of at least 4 mg/kg/day.
Compound `NCCO` [Ethanolamine] has an LEL [9] of 75 mg/kg/day, an LOAEL [9] of over 75 mg/kg/day and an NEL [9] of 25 mg/kg/day. For the same compound, the NOAEL [9] was at least 75 mg/kg/day, the LEL [10] was 225 mg/kg/day and the LOAEL [10] was over 225 mg/kg/day. For the same compound, the NEL [10] was 75 mg/kg/day, the NOAEL [10] was at least 225 mg/kg/day and the LOAEL [11, 15] was over 500 mg/kg/day. For the same compound, the NOAEL [11, 15] was at least 500 mg/kg/day, the LEL [11, 16] was 50 mg/kg/day and the NEL [11, 16] was under 50 mg/kg/day. It also gave an NEL ([11]; group: maternal, systemic / in life observation / clinical signs / [other] + systemic / in life observation / clinical signs / hyperactivity) of 300 mg/kg/day, an LEL [11, 17] of 500 mg/kg/day and an LOAEL [11, 17] of over 500 mg/kg/day. For the same compound, the NOAEL [11, 17] was at least 500 mg/kg/day.
